Assay results taken from US10308617B2, “Triazole benzamide derivatives and the compositions and methods of treatment regarding the same” (An2H Discovery Limited, priority 2016, dated 2019).

target: Parkin (Homo sapiens, UniProt O60260); experiment: Parkin pUB Auto-ubiquitinylation Assay (TR-FRET); assay type: biochemical; conditions: Parkin activation, pUb activated Parkin; read-out: Auto-ubiq EC50 (μM) [Example 3]
Description: A Parkin pUB Auto-ubiquitinylation Assay is used to evaluate a compound's potency to activate Parkin's ability to Auto-ubiquitinylate itself.
The principle of this assay is that the E3 Ligase Parkin catalyzes the transfer of Ubiquitin to target proteins, but also has the ability to auto-ubiquitinylate itself. The phospho-Ubiquition (pUb) added to the assay alters the Parkin to a state where small molecule activators can enable the Parkin to auto-ubiquitinylate though the E1-E2 cascade reaction. The use of a Eu cryptate Ubiquition and anti 6His-d2 that binds to the His tagged Parkin will give a signal when the Eu cryptate Ubiquition is auto-ubiquitinylate onto the Parkin which can be monitored by TR-FRET.
Similar to the Activity-based probe assay in Example 2, screening for activating compounds can be distinguished from the controls as follows: • 100% activation signal=pUb activated Parkin+40 nM control activator in DMSO. • 0% activation signal=pUb activated Parkin+DMSO only. • Parkin activators can be identified by an increase of the 0% activation signal TR-FRET signal. Materials: • Assay Plate: White 384 well plate (Corning 3572) • Enzyme 1: E1 (Ubiquitin-activating enzyme/UBE1 Boston Biochem E-305) • Enzyme 2: E2 (UBcH7/Ube2L3 Boston Biochem E2-640) • Enzyme 3: Parkin-His tagged 203 μM (10.5 mg/ml) • pUb: Phospho-Ubiquitin (S65) (Boston Biochem U-102) • Eu Cryptate Reagent: Ubiquitin Eu (CisBio 61UBIKLA) • DMSO: DMSO (Sigma-34869-2.5L) • Reaction Buffer: 50 mM HEPES, 50 mM NaCl, 1 mM MgCl2, 0.005% Tween 20, 0.1% PF-127 (Fisher Scientific 50-310-494), pH 8.5 • Detection Buffer: 50 mM HEPES, 50 mM NaCl, 800 mM KF, 5 mM EDTA, 0.005% Tween 20, 0.1% PF-127, pH 8.5 • Detection Reagent Z: 13.4 nM Anti-6His-d2 in detection buffer • d2 Reagent: Anti-6His-d2 (CisBio 61HISDLA)
Enzyme Reaction (15 min pre-incubation with Parkin, pUb and activator only) • Parkin: 196 nM • pUb: 196 nM • DMSO: 1% DMSO • E1: 5 nM • E2: 50 nM • Ubiquitin Eu: 8.8 nM • Reaction time: 120 minutes • Temperature: 22° C. • Total volume: 10 μl reaction
Take 10 μl of Enzyme Reaction above and add 10 μl detection Reagent Z under the following conditions:
Assay Procedure: • 1) Load assay plate wells with 4.9 μl 400.0 nM Parkin, 400 nM pUb in reaction buffer by use of Eppendorf 12-channel pipette. • 2) Deliver 0.1 μl 100× activator candidates in DMSO by use of Echo 555 compound dispenser. Highest 100× concentration=100 μm and then twofold dilutions. Add each compound and control in duplicate wells. • 3) Spin 1000 rpm, 2 minutes, at room temp. • 4) Incubate plate for 15 minutes at room temp. • 5) Add 5 μl 10 nM E1, 100 nM E2, 17.6 nM Ubiquitin Eu and 2 mM ATP in Reaction Buffer by use of Eppendorf 12-channel pipette. • 6) Spin 1000 rpm, 2 minutes, at room temp. • 7) Incubate plate for 120 minutes at room temp. • 8) Add 10 μl 13.4 nM anti his d2 in detection buffer by use of Eppendorf 12-channel pipette. • 9) Spin 1000 rpm, 2 minutes, at room temp. • 10) Incubate plate for 120 minutes at room temp. • 11) Read plates on Perkin Elmer Envision instrument with the following parameters: • LANCE dual laser protocol loaded into the Envision® software • Top Mirror: LANCE/DELFIA Duel/Bias (Bar code 446) • Emission Filter: APC 665 EM (Bar code 205) • 2nd Emission Filter: Europium 615 EM (Bar code 203) • Read 655 nm (channel 1) and 615 nm (channel 2) wavelengths on Envision®
Data Analysis: The Data can be read in CSV files. There are two tables in those CSV files, which are the values of 655 nm (channel 1) and 615 nm (channel 2) wavelengths respectively. The data is converted to an HTRF Ratio=(Channel 1/Channel 2)*10,000
The average of all the 0 uM controls (DMSO only)=BKGD (Background—0% activation). Subtract BKGD from each HTRF Ratio value=HTRF-BKGD. The average of all the […] control activator in DMSO controls=Max (100% activation). The following equation is then used to calculate % Activation for each well/candidate as follows: % Activation=(HTRF-BKGD/Max)*100. […]

Sequence of Parkin (O60260 whole entry, other chains not shown): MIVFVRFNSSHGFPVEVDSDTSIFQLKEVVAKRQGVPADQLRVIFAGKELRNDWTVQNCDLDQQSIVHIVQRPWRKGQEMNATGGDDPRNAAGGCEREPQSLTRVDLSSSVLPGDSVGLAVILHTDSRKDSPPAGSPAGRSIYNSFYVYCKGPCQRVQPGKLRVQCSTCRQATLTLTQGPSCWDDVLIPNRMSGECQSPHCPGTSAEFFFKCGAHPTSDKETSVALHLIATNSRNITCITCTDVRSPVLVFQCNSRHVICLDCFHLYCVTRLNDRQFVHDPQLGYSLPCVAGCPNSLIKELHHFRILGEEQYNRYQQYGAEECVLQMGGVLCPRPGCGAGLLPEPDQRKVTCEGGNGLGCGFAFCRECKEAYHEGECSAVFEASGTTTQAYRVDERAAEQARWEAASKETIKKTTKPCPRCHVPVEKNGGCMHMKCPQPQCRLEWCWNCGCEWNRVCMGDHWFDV

Compound | EC50
CCN(CC)c1nc(Nc2nc(NC(=O)c3ccccc3)nn2-c2ccccc2)c2ccccc2n1 [W] | > 40 µM
O=C(Nc1nc(Nc2cc(N3CCCC3)nc3ccccc23)n(-c2ccccc2)n1)c1ccccc1 [Compound A1] | > 40 µM
CC(=O)Nc1nc(NC(C)=O)n(-c2ccccc2)n1 [Compound B] | > 40 µM
O=C(Nc1nc(NC(=O)c2ccccc2)n(-c2cccc3ncccc23)n1)c1ccccc1 [Compound P2] | > 40 µM
C/C=C/C(=O)Nc1nc(Nc2ncnc3ccccc23)n(-c2ccccc2)n1 [Compound L1] | > 40 µM
CN1CCC(C(=O)Nc2nc(Nc3ncnc4ccccc34)n(-c3ccccc3)n2)CC1 [Compound D1] | > 40 µM
O=C(Nc1nc(Nc2nc(N3CCCC3)c3ccccc3n2)n(-c2ccccc2)n1)c1ccccc1 [Compound B1] | > 40 µM
CC(C)C(=O)Nc1nc(Nc2ncnc3ccccc23)n(-c2ccccc2)n1 [Compound K1] | > 40 µM
Cc1ccccc1C(=O)Nc1nc(NC(=O)c2ccccc2C)n(C(C)C)n1 [Compound W2] | > 40 µM
O=C(Nc1nc(NC(=O)c2ccccc2)n(-c2cccc3cccnc23)n1)c1ccccc1 [Compound O2] | > 40 µM
O=C(Nc1nc(NC(=O)c2ccccc2)n(C2CCOCC2)n1)c1ccccc1 [Compound I2] | > 40 µM
C=C(C)C(=O)Nc1nc(Nc2ncnc3ccccc23)n(-c2ccccc2)n1 [Compound M1] | > 40 µM
CCN(CC)c1nc(Nc2nc(NC(=O)c3ccccc3)nn2-c2ccccc2)nc2ccccc12 [X] | > 40 µM
CN(C(=O)c1ccccc1)c1nc(N(C)C(=O)c2ccccc2)n(-c2ccccc2)n1 [J] | > 40 µM
O=C(Nc1nc(Nc2cc(N3CCCC3)ncn2)n(-c2ccccc2)n1)c1ccccc1 [Compound G1] | > 40 µM
O=C(Nc1nc(NC(=O)c2ccc(I)cc2)n(-c2ccccc2)n1)c1ccc(I)cc1 [D] | > 40 µM
O=C(Nc1nc(Nc2ccncn2)n(-c2ccccc2)n1)c1ccccc1 [Compound H1] | > 40 µM
Cc1ccccc1C(=O)Nc1nc(C2CCOCC2)nn1-c1ccccc1 [Compound V2] | > 40 µM
O=C(Nc1nc(Nc2ncnc3ccccc23)n(-c2ccccc2)n1)c1cccs1 [Compound C1] | > 100 µM
CCN(CC)c1cc(Nc2nc(NC(=O)c3ccccc3)nn2-c2ccccc2)ncn1 [Compound F1] | > 40 µM

The next lines start with the values.

EC50 | Compound
> 40 µM | O=C(Nc1nc(NC(=O)c2cccs2)nn1-c1ccccc1)c1ccccc1 [Compound G2]
> 40 µM | O=C(Nc1nc(-c2ccccn2)nn1-c1ccccc1)c1ccccc1 [T]
> 40 µM | O=C(Nc1nc(NC(=O)c2ccccc2)n(-c2ccc(OC(F)(F)F)cc2)n1)c1ccccc1 [Compound Z1]
> 40 µM | COc1ccc(-n2nc(NC(=O)c3ccccc3)nc2NC(=O)c2ccccc2)cc1 [Compound F2]
> 40 µM | CN(C(=O)c1ccccc1)c1nc(NC(=O)c2ccccc2)nn1-c1ccccc1 [V]
> 40 µM | O=C(Nc1nc(NC(=O)c2ccccc2)n(-c2ccc3ccccc3n2)n1)c1ccccc1 [Compound D2]
> 40 µM | O=C(Nc1nc(Nc2nccc3ccccc23)n(-c2ccccc2)n1)c1ccccc1 [U]
> 40 µM | CN(C(=O)c1ccccc1)c1nc(NC(=O)c2ccccc2)n(-c2ccccc2)n1 [G]
> 40 µM | Cc1ccccc1C(=O)Nc1nc(NC(=O)c2ccccc2)n(-c2ccccc2)n1 [Compound H]
> 40 µM | O=C(Nc1nc(Nc2ncnc3ccccc23)nn1-c1ccccc1)c1ccccc1 [I]
> 40 µM | Cc1ccccc1-n1nc(NC(=O)c2ccccc2)nc1NC(=O)c1ccccc1 [M]
> 40 µM | Nc1nc(Nc2nc(NC(=O)c3ccccc3)nn2-c2ccccc2)nc2ccccc12 [Compound N1]
> 40 µM | Cc1ccccc1C(=O)Nc1nc(NC(=O)c2ccccc2C)n(-c2ccccn2)n1 [Compound X2]
> 40 µM | O=C(Nc1nc(NC(=O)c2ccccc2)n(-c2ccc(-c3ccccc3)cc2)n1)c1ccccc1 [Compound X1]
> 40 µM | C=CC(=O)Nc1nc(NC(=O)c2ccccc2)nn1-c1ccccc1 [Compound L2]
> 40 µM | O=C(Nc1nc(NC(=O)c2nc3ccccc3s2)n(-c2ccccc2)n1)c1ccccc1 [Compound M2]
> 40 µM | O=C(Nc1nc(NC(=O)c2ccccc2)n(-c2ccc(I)cc2)n1)c1ccccc1 [Compound E, N-[5-benzamido-1-(4-iodophenyl)-1,2,4-triazol-3-yl]benzamide]
> 40 µM | O=C(Nc1nc(Nc2nc(O)nc3ccccc23)n(-c2ccccc2)n1)c1ccccc1 [Compound E1]
> 40 µM | Cc1ccccc1C(=O)Nc1nc(NC(=O)c2ccccc2)nn1-c1ccccc1 [Compound K, N-(5-benzamido-2-phenyl-1,2,4-triazol-3-yl)-2-methyl-benzamide]
> 40 µM | Cc1ccccc1C(=O)Nc1nc(-c2ccncc2)nn1-c1ccccc1 [Compound S2]
> 40 µM | O=C(Nc1nc(Nc2nc(O)c3ccccc3n2)n(-c2ccccc2)n1)c1ccccc1 [Compound O1]
> 40 µM | Cc1ccccc1C(=O)Nc1nc(-c2cccnc2)nn1-c1ccccc1 [Compound T2]
> 40 µM | O=C(Nc1nc(NC(=O)c2cccc([N+](=O)[O-])c2)n(-c2ccccc2)n1)c1ccccc1 [Compound V1]
> 40 µM | Nc1nc(Nc2nc(NC(=O)c3ccccc3)nn2-c2ccccc2)c2ccccc2n1 [Compound J1]
> 40 µM | O=C(Nc1nc(Nc2ccnc3ccccc23)n(-c2ccccc2)n1)c1ccccc1 [Compound I1]

system: not listed separately; experiment: Microsomal Stability Assay, rat liver microsomes; assay type: in vitro ADME; conditions: rat, liver microsomes, pH 7.4; 1 μM compound, 1.0 mg/mL microsome, NADPH; read-out: RLM t1/2
Method: Compounds were also tested for metabolic stability in both rat liver microsomes (RLM) and human liver microsomes (HLM) and their half-life calculated (See Table 5). The assay was performed as follows. The total volume for each incubation was 250 μL. A 100 μM DMSO solution of compound (diluted from 10 mM stock solution) was spiked into 50 mM KH2PO4 (pH 7.4) buffer containing liver microsome at a concentration of 1.0 mg/mL. The reaction was initiated by the addition of 50 μL of 1 mM NADPH. The final concentration of each compound was 1 μM (1% DMSO). The positive controls, phenacetin for CYP1A2, diclofenac for CYP2C9, omeprazole for CYP2C19, dextromethorphan for CYP2D6 and midazolam for CYP3A4 were added to a separate tube with the final substrate concentrations of 1 μM (1% DMSO) for evaluating the enzyme activities in the liver microsomes. At 0, 15, 30 and 60 min, an aliquot of 15 μL reaction mixtures were removed and 200 μL of methanol (with internal standard of 25 ng/mL propranolol) was added to quench the reaction. The resulting mixture was centrifuged and supernatant was used for LC-MS/MS analysis.
The signals for each compound, or the metabolites for the probe substrates and the internal standard were integrated and the peak area ratios to internal standard were generated. Percent parent remaining at a specified timepoint was calculated based on the peak area ratios at time 0 (as 100%) for in vitro metabolic stability studies in liver microsome and hepatocyte. The observed rate constant (kobs) for the metabolism of substrates was calculated by plotting the natural log of percentage substrate remaining versus time of incubation with the slope being kobs. The half-life (T1/2) was calculated according to the following equation: T1/2=0.693/kobs

half-life at 1 μM | Compound
39 min | O=C(Nc1nc(NC(=O)c2cccs2)nn1-c1ccccc1)c1ccccc1 [Compound G2]
19 min | O=C(Nc1nc(NC(=O)c2ccccc2)n(-c2ccc(OC(F)(F)F)cc2)n1)c1ccccc1 [Compound Z1]
16 min | Cc1ccccc1C(=O)Nc1nc(-c2ccccn2)nn1-c1ccc(OC(F)(F)F)cc1 [Compound H3]
133 min | Cc1ccccc1C(=O)Nc1nc(NC(=O)c2ccccc2C)n(-c2ccc(Cl)cc2)n1 [Compound Q3]
